Patent US6683103B2, “Sulfonamides for treatment of endothelin-mediated disorders” (Texas Biotechnology Corporation, priority 1997, dated 2004)
Like-named read-outs stand apart in the source and are kept apart here.

What was measured:
human ETB receptor = molecular target: T1, human ETB receptor (Homo sapiens, UniProt P24530); assay: Binding Test #2: inhibition of 125I-ET-1 binding to ETB receptors (transfected COS7 cell membranes); details: Table 1, read-out: ETB
T1 construct: expressed in transfected cells; host or cells: COS7 cells
T1 sequence (P24530 27-442): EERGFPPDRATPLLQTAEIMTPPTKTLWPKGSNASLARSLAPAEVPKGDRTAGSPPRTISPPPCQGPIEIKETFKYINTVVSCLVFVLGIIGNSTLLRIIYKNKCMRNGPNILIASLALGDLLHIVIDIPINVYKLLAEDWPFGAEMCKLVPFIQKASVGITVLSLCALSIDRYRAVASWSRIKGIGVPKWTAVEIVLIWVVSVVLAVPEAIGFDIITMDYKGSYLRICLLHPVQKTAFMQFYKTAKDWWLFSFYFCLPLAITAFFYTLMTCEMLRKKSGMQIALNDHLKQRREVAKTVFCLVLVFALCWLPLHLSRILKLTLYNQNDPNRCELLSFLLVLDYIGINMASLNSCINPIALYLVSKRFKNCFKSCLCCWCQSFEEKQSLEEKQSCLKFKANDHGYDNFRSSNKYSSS
Procedure, shortened: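 Competition with 125I-ET-1 for binding to membranes from COS7 cells transfected with human ETB receptor, used at 1 μg/50 μl binding buffer. Membranes prepared in HEPES pH 7.4 with aprotinin, including a DNase/MnCl2 step at 37 °C for 30 min.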

human ETA receptors = molecular target: T2, human ETA receptors (Homo sapiens, UniProt P25101); assay: Binding Test #1: inhibition of 125I-ET-1 binding to ETA receptors (TE 671 cell membranes); details: Table 1, read-out: ETA
T2 construct: endogenous in cells; host or cells: TE 671 cells (ATCC HTB 139)
T2 sequence (P25101 21-427): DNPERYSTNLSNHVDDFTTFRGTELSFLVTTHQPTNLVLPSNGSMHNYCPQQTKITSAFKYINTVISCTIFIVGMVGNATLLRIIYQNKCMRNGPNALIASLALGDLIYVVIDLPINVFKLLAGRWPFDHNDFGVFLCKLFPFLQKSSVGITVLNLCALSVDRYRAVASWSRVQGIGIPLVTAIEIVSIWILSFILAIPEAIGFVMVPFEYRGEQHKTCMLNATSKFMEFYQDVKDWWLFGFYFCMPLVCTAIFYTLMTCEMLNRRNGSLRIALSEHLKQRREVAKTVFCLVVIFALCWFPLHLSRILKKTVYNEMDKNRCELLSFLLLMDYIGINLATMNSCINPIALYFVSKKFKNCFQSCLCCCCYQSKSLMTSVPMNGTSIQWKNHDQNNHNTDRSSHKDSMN
Procedure, shortened: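 Membranes from TE 671 cells (up to 8 μg protein) incubated with ¹²⁵I-ET-1 and compound (1 nM–100 μM final) in 30 mM HEPES pH 7.4, 150 mM NaCl, 5 mM MgCl2, 0.5% bacitracin, 16–18 h at 4 °C or alternatively at 24 °C. Nonspecific binding with 80 nM ET-1; bound pellet gamma-counted, % inhibition calculated, usually triplicate.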

| IC50 (human ETB receptor; incubation at 4° C.) | IC50 (human ETA receptors; incubation at 4° C.) | IC50 (human ETB receptor; † incubation at 24° C.) | IC50 (human ETA receptors; † incubation at 24° C.) | Molecule |
| --- | --- | --- | --- | --- |
| 3.5 µM | 0.0486 µM | – | – | Cc1noc(NS(=O)(=O)c2c(C)sc3ccccc23)c1Br [N-(4-bromo-3-methyl-5-isoxazolyl)-2-methylbenzo[b]thiophene-3-sulfonamide] |
| ~1 µM | 0.0182 µM | – | – | Cc1noc(NS(=O)(=O)c2c(Cc3ccccc3)sc3ccccc23)c1Br [N-(4-bromo-3-methyl-5-isoxazolyl)-2-n-benzylbenzo[b]thiophene-3-sulfonamide] |
| ~0.36 µM | ~6.7 µM | – | – | Cc1noc(NS(=O)(=O)c2ccc(-c3cc(C(F)(F)F)n(C)n3)s2)c1Br [N-(4-Bromo-3-methyl-5-isoxazolyl)-5-{3-[1-methyl-5-(trifluoromethyl)pyrazolyl]}thiophene-2-sulfonamide] |
| 2.84 µM | 0.044 µM | – | – | CCCCc1ccc(NC(=O)c2sccc2S(=O)(=O)Nc2onc(C)c2Br)cc1 [N-(4-bromo-3-methyl-5-isoxazolyl)-2-(4-butylphenyl)aminocarbonylthiophene-3-sulfonamide] |
| 0.912 µM | 0.0376 µM | – | – | Cc1noc(NS(=O)(=O)c2ccsc2C(=O)Nc2ccc(-c3ccccc3)cc2)c1Br [N-(4-Bromo-3-methyl-5-isoxazolyl)-2-[N-(4-biphenyl)aminocarbonyl]thiophene-3-sulfonamide] |
| – | – | 2.09 µM | 6.1 µM | Cc1ccc(CCc2cc(-c3ccc(C)cc3)sc2S(=O)(=O)Nc2onc(C)c2Br)cc1 [N-(4-bromo-3-methyl-5-isoxazolyl)-3-(4-methylphenethyl)-5-(4-tolyl)thiophene-2-sulfonamide] |
| 0.849 µM | 0.0016 µM | – | – | CCc1ccc(NC(=O)c2sccc2S(=O)(=O)Nc2onc(C)c2Br)cc1 [N-(4-Bromo-3-methyl-5-isoxazolyl)-2-[N-(4-ethylphenyl)aminocarbonyl]thiophene-3-sulfonamide] |
| – | – | 4.5 µM | 26 µM | Cc1noc(NS(=O)(=O)c2ccc(-c3cccc([N+](=O)[O-])c3)s2)c1Br [N-(4-bromo-3-methyl-5-isoxazolyl)-5-(3-nitrophenyl)thiophene-2-sulfonamide] |
| 10.4 µM | ~0.28 µM | – | – | Cc1noc(NS(=O)(=O)c2c(Cl)sc(Cl)c2Br)c1Br [N-(4-Bromo-3-methyl-5-isoxazolyl)-4-bromo-2,5-dichlorothiophene-3-sulfonamide] |
| – | – | 1.5 µM | ~0.2 µM | CCCc1cc2c(cc1OCc1ccsc1S(=O)(=O)Nc1onc(C)c1Br)OCO2 [N-(4-bromo-3-methyl-5-isoxazolyl)-3-{[2-propyl-4,5-(methylenedioxy)phenoxy]methyl}thiophene-2-sulfonamide] |
| 36.5 µM | 0.46 µM | – | – | Cc1cc(S(=O)(=O)Nc2onc(C)c2Br)c(C)o1 [N-(4-bromo-3-methyl-5-isoxazolyl)-2,5-dimethylfuran-3-sulfonamide] |
| 2.62 µM | ~0.39 µM | – | – | Cc1noc(NS(=O)(=O)c2cc(Cl)sc2Cl)c1Br [N-(4-Bromo-3-methyl-5-isoxazolyl)-2,5-dichlorothiophene-3-sulfonamide] |
| 27.3 µM | 0.211 µM | – | – | Cc1onc(NS(=O)(=O)c2cccs2)c1Br [N-(4-bromo-5-methyl-3-isoxazolyl)thiophene-2-sulfonamide] |
| 2.57 µM | 0.311 µM | – | – | Cc1noc(NS(=O)(=O)c2ccc(CNC(=O)c3ccc(Cl)cc3)s2)c1Br [N-(4-Bromo-3-methyl-5-isoxazolyl)-5-(4-chlorobenzamidomethyl)thiophene-2-sulfonamide] |
| – | – | 4.8 µM | 0.0004 µM | Cc1ccc(CC(=O)c2sccc2S(=O)(=O)Nc2onc(C)c2Cl)c(C)c1 [N-(4-chloro-3-methyl-5-isoxazolyl)-2-(2,4-dimethylphenylacetyl)thiophene-3-sulfonamide] |
| 0.211 µM | 0.838 µM | – | – | Cc1noc(NS(=O)(=O)c2ccn(-c3ccc(C(C)C)cc3)c2)c1Br [N-(4-Bromo-3-methyl-5-isoxazolyl) 1-(4′-isopropylphenyl)pyrrole-3-sulfonamide] |

| Molecule | IC50 (human ETB receptor; incubation at 4° C.) | IC50 (human ETA receptors; incubation at 4° C.) | IC50 (human ETB receptor; † incubation at 24° C.) | IC50 (human ETA receptors; † incubation at 24° C.) |
| --- | --- | --- | --- | --- |
| N-(4-chloro-3-methyl-5-isoxazolyl)-2-[β-acetoxy-2-methyl-4,5-(methylenedioxy)styryl]thiophene-3-sulfonamide | – | 0.00544 µM | 3.74 µM | – |
